How the values were obtained:
[1] = Grinding experiments in a ball mill, solid phase by PXRD; assay type: physicochemical; details: with solvent or without solvent
Method: Grinding experiments were performed in a Retsch MM400 Ball Mill using the following methodology: samples of 30 mg of phase R-5 of Rufinamide were grinded at a frequency of 20 s^−1 for 15 min, with a drop of solvent and without solvent.

[2] = Thermal stability experiments under vacuum, solid phase by PXRD; assay type: physicochemical; details: 40° C., 1 mbar, different periods of time
Method: Further advantages of polymorphic form R-5 arose from the significant good thermal stability that has shown over time. […] Thermal stability experiments were performed in a Binder Vacuum oven VD53 using the following methodology. Samples of from R-5 of Rufinamide were kept under vacuum, at 40° C. for different periods of times (at 1 mbar), see table 3 below. There were no significant differences in the PXRD patterns of the solids obtained after the thermal treatment.

- Change of polymorphic form by grinding [1]: does not change
- Change of polymorphic form under accelerated degradation (thermal stability) [2]: No changes in polymorphic form
SMILES: NC(=O)c1cn(Cc2c(F)cccc2F)nn1 [R-5, 1-(2,6-difluorobenzyl)-1H-1,2,3-triazole-4-carboxamide]

Source: US8884026B2, “Process for preparing rufinamide intermediate” (Laboratorios Lesvi, S.L., priority 2010, dated 2014)
